The values that follow come from paper PMC6934184, “Selective DNA-PKcs inhibition extends the therapeutic index of localized radiotherapy and chemotherapy” (The Journal of Clinical Investigation, 2019).

The test concerns the target T1, CHEK2 (CHK2) (Homo sapiens, UniProt O96017).
T1 construct: purchased Thermo Fisher Scientific (Life Technologies) SelectScreen
Description: SelectScreen Z'LYTE. The format is biochemical. Put shortly: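 NU5455 was profiled across the SelectScreen Broad panel of kinase activity and binding assays. Z'LYTE reactions such as CSF1R ran at apparent Km ATP, while the Adapta CAMK1 assay used ATP listed as 10. Values are given as percent.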

T1 sequence (O96017 whole entry): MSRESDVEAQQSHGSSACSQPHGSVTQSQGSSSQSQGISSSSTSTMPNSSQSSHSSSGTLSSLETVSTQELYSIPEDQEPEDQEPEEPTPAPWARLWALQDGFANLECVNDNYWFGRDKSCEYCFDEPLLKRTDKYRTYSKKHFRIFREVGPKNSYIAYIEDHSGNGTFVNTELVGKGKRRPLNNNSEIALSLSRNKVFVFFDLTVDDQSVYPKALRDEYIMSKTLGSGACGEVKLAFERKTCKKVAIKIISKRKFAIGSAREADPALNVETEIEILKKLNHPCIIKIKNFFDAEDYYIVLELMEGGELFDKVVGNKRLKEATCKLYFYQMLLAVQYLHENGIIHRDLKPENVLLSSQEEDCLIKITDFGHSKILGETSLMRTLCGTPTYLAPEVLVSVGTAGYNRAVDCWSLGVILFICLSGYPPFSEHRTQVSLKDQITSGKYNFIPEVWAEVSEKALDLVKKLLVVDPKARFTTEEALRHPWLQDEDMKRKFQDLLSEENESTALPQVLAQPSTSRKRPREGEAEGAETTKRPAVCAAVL

A word on the inhibition: it is the drop in the measured response relative to a control, in per cent. As to `CN(C(=O)CN1CCOCC1)c1ccc2sc3c(-c4cccc5c(=O)cc(N6CC7CCC(C6)O7)oc45)cccc3c2c1` [NU5455], the inhibition at 1 µM was -11.7%.
